Measured values as given in patent US5723666A, “Oxime substituted tetrahydronaphthalene derivatives having retinoid and/or retinoid antagonist-like biological activity” (Allergan, priority 1996, dated 1998).

Molecular target: T1, RARα (Homo sapiens, UniProt P10276)
T1 sequence (P10276 1-462): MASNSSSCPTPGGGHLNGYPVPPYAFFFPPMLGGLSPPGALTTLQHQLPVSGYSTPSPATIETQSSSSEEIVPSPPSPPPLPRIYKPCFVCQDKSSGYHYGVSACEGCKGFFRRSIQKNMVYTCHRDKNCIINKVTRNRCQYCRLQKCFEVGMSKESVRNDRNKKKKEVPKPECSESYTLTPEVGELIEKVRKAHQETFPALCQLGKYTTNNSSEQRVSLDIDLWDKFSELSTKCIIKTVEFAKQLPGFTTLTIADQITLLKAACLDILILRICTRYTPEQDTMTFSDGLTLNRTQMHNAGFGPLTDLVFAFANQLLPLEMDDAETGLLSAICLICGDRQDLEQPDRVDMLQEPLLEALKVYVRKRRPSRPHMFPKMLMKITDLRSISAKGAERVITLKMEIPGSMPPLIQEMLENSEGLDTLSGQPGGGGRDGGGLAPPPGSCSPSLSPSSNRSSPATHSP
Test: Ligand Binding Assay, RARα
From the text: Other assays described below, measure the ability of the compounds of the present invention to bind to, and/or activate various retinoid receptor subtypes. When in these assays a compound binds to a given receptor subtype and activates the transcription of a reporter gene through that subtype, then the compound is considered an agonist of that receptor subtype. […] In the below described assays the ability of the compounds to bind to RARα, RARβ, RARγ, RXRα, RXRβ and RXRγ receptors, and the ability or inability of the compounds to activate transcription of a reporter gene through these receptor subtypes can be tested.
A holoreceptor transactivation assay and a ligand binding assay which measure the antagonist/agonist like activity of the compounds of the invention, or their ability to bind to the several retinoid receptor subtypes, respectively, are described in published PCT Application No. WO WO93/11755 (particularly on pages 30-33 and 37-41) published on Jun. 24, 1993, the specification of which is also incorporated herein by reference. A description of the holoreceptor transactivation assay is also provided below.
CV1 cells (5,000 cells/well) were transfected with an RAR, reporter plasmid MTV-TREp-LUC (50 ng) along with one of the RAR expression vectors (10 ng) in an automated 96-well format by the calcium phosphate procedure of Heyman et al. Cell 68, 397-406, (1992). […]

For `CO/N=C1\CCC(C)(C)c2ccc(/N=N/c3ccc(C(=O)O)cc3)cc21` [Compound D4], the Kd was 1000 nM.
